Key:
[1] = target: T1, Aurora-A (h) (Homo sapiens, UniProt O14965); test: Aurora-A (h) kinase assay; assay type: biochemical
T1 construct: purchased Millipore UK Ltd (contract assay service)
T1 sequence (O14965 1-403): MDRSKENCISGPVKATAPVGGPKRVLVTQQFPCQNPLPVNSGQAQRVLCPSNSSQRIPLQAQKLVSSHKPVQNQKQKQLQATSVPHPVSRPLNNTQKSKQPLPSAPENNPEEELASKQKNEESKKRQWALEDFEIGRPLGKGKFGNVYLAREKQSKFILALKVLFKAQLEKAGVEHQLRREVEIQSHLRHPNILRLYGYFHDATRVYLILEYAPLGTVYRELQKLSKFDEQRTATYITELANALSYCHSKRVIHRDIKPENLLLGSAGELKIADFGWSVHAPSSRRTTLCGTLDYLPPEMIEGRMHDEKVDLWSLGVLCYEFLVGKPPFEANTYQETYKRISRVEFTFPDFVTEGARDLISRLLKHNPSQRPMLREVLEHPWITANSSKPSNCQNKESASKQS
Method: The above assay procedure can be used to determine the IC50 for inhibition and/or the inhibition constant, Ki. The IC50 is defined as the concentration of compound required to reduce the enzyme activity by 50% under the condition of the assay. The IC50 value is estimated by preparing a 10 point curve using a 1/2 log dilution series (for example, a typical curve may be prepared using the following compound concentrations: 3 μM, 1 μM, 0.3 μM, 0.1 μM, 0.03 μM, 0.01 μM, 0.003 μM, 0.001 μM, 0.0003 μM and 0 μM).
Aurora-A (h) is incubated with 8 mM MOPS pH 7.0, 0.2 mM EDTA, 200 μM LRRASLG (Kemptide), 10 mM MgAcetate and [γ-^33P-ATP] (specific activity approx. 500 cpm/pmol, concentration as required). The reaction is initiated by the addition of the MgATP mix. After incubation for 40 minutes at room temperature, the reaction is stopped by the addition of 3% phosphoric acid solution. 10 μL of the reaction is then spotted onto a P30 filtermat and washed three times for 5 minutes in 75 mM phosphoric acid and once in methanol prior to drying and scintillation counting.
The kinase assays described herein were performed at Millipore UK Ltd, Dundee Technology Park, Dundee DD2 1SW, UK.

[2] = Pharmacokinetics after intravenous and oral administration in rats; assay type: in vivo; details: for Clearance (CL) after iv dosing / AUC(0-t) / half-life / Vd: dose 1 mg/kg, iv dosing; for F: oral bioavailability; for AUC(0-t) / half-life / Vd: rat, plasma; for Vd: read-out: Vss
Method: The LC/MS/MS system used in the analysis consists of an Agilent 1200 Series vacuum degasser, binary pump, well-plate autosampler, thermostatted column compartment, the Agilent G6430 Triple Quadrupole Mass Spectrometer with an electrosprayionization (ESI) source. Quantitative analysis was carried out using MRM mode. The parameters for MRM transitions are in the Table A.
An Agilent XDB-C18, 2.1×30 mm, 3.5 μM column was used for the analysis. 5 μL of the samples were injected. Analysis condition: The mobile phase was 0.1% formic acid in water (A) and 0.1% formic acid in methanol (B). The flow rate was 0.4 mL/min. And the gradient of Mobile phase was in the Table B.
Alternatively, an Agilent 6330 series LC/MS/MS spectrometer equipped with G1312A binary pumps, a G1367A autosampler and a G1314C UV detector were used in the analysis. An ESI source was used on the LC/MS/MS spectrometer. The analysis was done in positive ion mode as appropriate and the MRM transition for each analyte was optimized using standard solution. A Capcell MP-C18 100×4.6 mm I.D., […] column (Phenomenex, Torrance, Calif., USA) was used during the analysis. The mobile phase was 5 mM ammonia acetate, 0.1% MeOH in water (A): 5 mM ammonia acetate, 0.1% MeOH in acetonitrile (B) (70/30, v/v). The flow rate was 0.6 mL/min. Column was maintained at ambient temperature. 20 μL of the samples were injected.
The compounds disclosed herein are assessed in pharmacokinetic studies in mice, rats, dogs or monkeys. The compounds are administered as a water solution, 2% HPMC+1% TWEEN®80 in water solution, 5% DMSO+5% solutol in saline, 4% MC suspension or capsule. For the intravenous administration, the animals are generally given at 0.5, 1 or 2 mg/kg dose. For the oral (p.o.) dosing, mice and rats are generally given 0.5, 1, 5 or 10 mg/kg dose, and dogs and monkeys are generally given 10 mg/kg dose. The blood samples (0.3 mL) are drawn at 0.25, 0.5, 1.0, 2.0, 3.0, 4.0, 6.0, 8.0, 12 and 24 h time points or 0.083, 0.25, 0.5, 1.0, 2.0, 4.0, 6.0, 8.0 and 24 h time points and centrifuged at 3,000 or 4000 rpm for 2 to 10 min. The plasma solutions are collected, and stored at −20° C. or −70° C. until analyzed by LC/MS/MS as described above.

[3] = Compound stability in rat liver microsomes; assay type: in vitro ADME; details: pH 7.4; for half-life at 5 μM: rat liver microsomes 0.5 mg protein/mL, compound 5 μM, NADPH, 37° C., read-out: Rat T1/2; for CLint scaled at 5 μM: rat liver microsomes, in vivo CLint extrapolated
Method: (§1) Human or rat liver microsomes incubations were conducted in duplicate in polypropylene tubes. The typical incubation mixtures consisted of human or rat liver microsomes (0.5 mg protein/mL), compounds of interest (5 μM) and NADPH (1.0 mM) in a total volume of 200 μL potassium phosphate buffer (PBS, 100 mM, pH 7.4). Compounds were dissolved in DMSO and diluted with PBS such that the final concentration of DMSO was 0.05%. The enzymatic reactions were commenced with the addition of protein after a 3-min preincubation and incubated in a water bath open to the air at 37° C. Reactions were terminated at various time points (0, 5, 10, 15, 30, 60 min) by adding equal volume of ice-cold acetonitrile. The samples were stored at −80° C. until LC/MS/MS assays.
(§2) The concentrations of compounds in the incubation mixtures of human or rat liver microsomes were determined by a LC/MS/MS method. The ranges of the linearity in the concentration range were determined for each tested compounds.
(§3) A parallel incubation was performed using denatured microsomes as the negative control, and reactions were terminated at various time points (0, 15, 60 min) after incubation at 37° C.
(§4) Dextromethorphan (70 μM) was selected as the positive control, and reactions were terminated at various time points (0, 5, 10, 15, 30, 60 min) after incubation at 37° C. Both positive and negative control samples were included in each assay to ensure the integrity of the microsomal incubation system.
(§5) The concentrations of compounds in human or rat liver microsome incubations were plotted as a percentage of the relevant zero time point control for each reaction. The in vivo CLint were extrapolated (ref.: Naritomi, Y.; Terashita, S.; Kimura, S.; Suzuki, A.; Kagayama, A.; and Sugiyama, Y.; Prediction of human hepatic clearance from in vivo animal experiments and in vitro metabolic studies with liver microsomes from animals and humans. Drug Metab. Dispos., 2001, 29: 1316-1324).

[4] = Compound stability in human liver microsomes; assay type: in vitro ADME; details: pH 7.4; for half-life at 5 μM: human liver microsomes 0.5 mg protein/mL, compound 5 μM, NADPH, 37° C., read-out: Human T1/2; for CLint scaled at 5 μM: human liver microsomes, in vivo CLint extrapolated
Method: as §1, §2, §3, §4, §5

Structure (SMILES)	IC50 [1]	Clearance (CL) after iv dosing [2]	F [2]	AUC(0-t) [2]	half-life [2]	Vd [2]	half-life at 5 μM [3]	CLint scaled at 5 μM [3]	half-life at 5 μM [4]	CLint scaled at 5 μM [4]
Cn1cc(Nc2ncc(Cl)c(N[C@@H]3COC4C3OC[C@@H]4NS(=O)(=O)Cc3ccccc3)n2)cn1 (stereo partly drawn) [Ex. 19, N-((3S,6R)-6-((5-chloro-2-((1-methyl-1H-pyrazol-4-yl)amino)pyrimidin-4-yl)amino)hexahydrofuro[3,2-b]furan-3-yl)-1-phenylmethanesulfonamide]	10 nM	44.8 mL/min/kg	28.2%	374 ng·h/mL	52.8 min	2.37 L/kg	–	–	–	–
Cn1cc(Nc2ncc(Cl)c(N[C@@H]3COC4C3OC[C@@H]4NS(=O)(=O)NC3CCOC3)n2)cn1 (stereo partly drawn) [Ex. 29, 5-chloro-N-(1-methyl-1H-pyrazol-4-yl)-4-(((3R,6S)-6-((N-(tetrahydrofuran-3-yl)sulfamoyl)amino)hexahydrofuro[3,2-b]furan-3-yl)amino)pyrimidin-2-amine]	16 nM	–	–	–	–	–	–	–	–	–
Cn1cc(Nc2ncc(Cl)c(N[C@@H]3COC4C3OC[C@@H]4NS(=O)(=O)CC(F)F)n2)cn1 (stereo partly drawn) [Ex. 36, N-((3S,6R)-6-((5-chloro-2-((1-methyl-1H-pyrazol-4-yl)amino)pyrimidin-4-yl)amino)hexahydrofuro[3,2-b]furan-3-yl)-2,2-difluoroethanesulfonamide]	51 nM	–	–	–	–	–	–	–	–	–
CC(C)CS(=O)(=O)N[C@H]1COC2C1OC[C@@H]2Nc1nc(Nc2cnn(C)c2)ncc1Cl (stereo partly drawn) [Ex. 28, N-((3S,6S)-6-((5-chloro-2-((1-methyl-1H-pyrazol-4-yl)amino)pyrimidin-4-yl)amino)hexahydrofuro[3,2-b]furan-3-yl)-2-methylpropane-1-sulfonamide]	575 nM	–	–	–	–	–	–	–	–	–
CC(CF)CS(=O)(=O)N[C@H]1COC2C1OC[C@H]2Nc1nc(Nc2cnn(C)c2)ncc1Cl (stereo partly drawn) [Ex. 37, N-((3S,6R)-6-((5-chloro-2-((1-methyl-1H-pyrazol-4-yl)amino)pyrimidin-4-yl)amino)hexahydrofuro[3,2-b]furan-3-yl)-3-fluoro-2-methylpropane-1-sulfonamide]	–	34.2 mL/min/kg	69.5%	491 ng·h/mL	32.4 min	0.86 L/kg	34.9 min	71.1 mL/min/kg	26.6 min	65.5 mL/min/kg
Cn1cc(Nc2ncc(Cl)c(N[C@@H]3COC4C3OC[C@@H]4NS(=O)(=O)C(C)(C)C)n2)cn1 (stereo partly drawn) [Ex. 24, N-((3S,6R)-6-((5-chloro-2-((1-methyl-1H-pyrazol-4-yl)amino)pyrimidin-4-yl)amino)hexahydrofuro[3,2-b]furan-3-yl)-2-methylpropane-2-sulfonamide]	–	29.3 mL/min/kg	127.3%	567 ng·h/mL	42 min	1.4 L/kg	78.6 min	31.6 mL/min/kg	25.6 min	68 mL/min/kg
Cn1cc(Nc2ncc(Cl)c(N[C@@H]3COC4C3OC[C@@H]4NS(=O)(=O)c3ccc(F)cc3)n2)cn1 (stereo partly drawn) [Ex. 8, N-((3S,6R)-6-((5-chloro-2-((1-methyl-1H-pyrazol-4-yl)amino)pyrimidin-4-yl)amino)hexahydrofuro[3,2-b]furan-3-yl)-4-fluorobenzenesulfonamide]	–	38 mL/min/kg	90.1%	452 ng·h/mL	37.2 min	1.87 L/kg	68 min	36.5 mL/min/kg	57.3 min	30.4 mL/min/kg
CC(C)=CS(=O)(=O)N[C@H]1COC2C1OC[C@H]2Nc1nc(Nc2cnn(C)c2)ncc1Cl (stereo partly drawn) [Ex. 43, N-((3S,6R)-6-((5-chloro-2-((1-methyl-1H-pyrazol-4-yl)amino)pyrimidin-4-yl)amino)hexahydrofuro[3,2-b]furan-3-yl)-2-methylprop-1-ene-1-sulfonamide]	–	35 mL/min/kg	57.1%	479 ng·h/mL	47.4 min	1.75 L/kg	25.7 min	96.5 mL/min/kg	22.9 min	76 mL/min/kg
CC(CS(=O)(=O)N[C@H]1COC2C1OC[C@H]2Nc1nc(Nc2cnn(C)c2)ncc1Cl)C(F)F (stereo partly drawn) [Ex. 42, N-((3S,6R)-6-((5-chloro-2-((1-methyl-1H-pyrazol-4-yl)amino)pyrimidin-4-yl)amino)hexahydrofuro[3,2-b]furan-3-yl)-3,3-difluoro-2-methylpropane-1-sulfonamide]	–	32.5 mL/min/kg	33.1%	517 ng·h/mL	46.2 min	1.37 L/kg	29.6 min	83.9 mL/min/kg	29.3 min	59.3 mL/min/kg
Cn1cc(Nc2ncc(Cl)c(N[C@H]3COC4C3OC[C@H]4NS(=O)(=O)CC(C)(C)C)n2)cn1 (stereo partly drawn) [Ex. 7, N-((3R,6S)-6-((5-chloro-2-((1-methyl-1H-pyrazol-4-yl)amino)pyrimidin-4-yl)amino)hexahydrofuro[3,2-b]furan-3-yl)-2,2-dimethylpropane-1-sulfonamide]	1180 nM	–	–	–	–	–	–	–	–	–
CC(C)CS(=O)(=O)N[C@@H]1COC2C1OC[C@H]2Nc1nc(Nc2cnn(C)c2)ncc1Cl (stereo partly drawn) [Ex. 32, N-((3R,6R)-6-((5-chloro-2-((1-methyl-1H-pyrazol-4-yl)amino)pyrimidin-4-yl)amino)hexahydrofuro[3,2-b]furan-3-yl)-2-methylpropane-1-sulfonamide]	478 nM	–	–	–	–	–	–	–	–	–

Source: patent US20170081338A1, “SUBSTITUTED HETEROARYL COMPOUNDS AND METHODS OF USE” (Sunshine Lake Pharma Co., Ltd., priority 2015, published 2017)
